Experimental data from US8802818B2, “Prostaglandin-F2 alpha receptor modulators and uses thereof” (priority 2011, dated 2014).
Square brackets hold non-standard residues; d marks the D form. Peptide text beside a SMILES is read from it. * marks the point of attachment. 3Pal = N[C@@H](Cc1cccnc1)C(=O)O; β3hF = N[C@H](CC(=O)O)Cc1ccccc1; PhAc = O=C(Cc1ccccc1)*; azaGly = NNC(=O)O

How the values were obtained:
SW480 cells = assay: Migration/invasion of SW480 cells in collagen-coated Boyden chambers; format: cell-based, human; conditions: 1 μM, 30 min pre-treatment, 16 h; for PGF2α-induced migration of SW480 cells: then 1 μM PGF2α
Experimental: SW480 cells were re-seeded into collagen-coated Boyden chambers, pretreated with PDC (1 μM, 30 min.), and stimulated or not with 1 μM PGF2α and PGE2 (use to show specificity of analogs for FP). Migration/invasion was assessed after 16 h.
Migration/invasion was assessed after 16 h.

PGF2α receptor (FP) [1] = molecular target: T1, PGF2α receptor (FP) (Homo sapiens, UniProt P43088); assay: Cell ruffling in FP expressing HEK293 cells; conditions: 30 min; for inhibition of FP-induced (PGF2α-mediated) cell ruffling: pretreated 1 μM, then PGF2α 1 μM
Excerpt: Nine fields (50-75 cells/field) per cover slip were quantified to assess circular cellular ruffling.

[2] = tested on: PGF2α-induced myometrial contractions; assay: Ex vivo myometrial contraction assay; design: species or system mice; conditions: mouse myometrial strips; compound given 15 min before PGF2α
Experimental: FIGS. 7A and 7B show the effects of PDC113.824 and azapeptides 5-9 on mean tension in myometrial preparations induced by PGF2α. At the beginning of each experiment, mean tension of spontaneous myometrial contraction was considered as the basal response. […] Values as mean±SEM of 3-5 experiments for each compound; p<0.05 compared to all values without asterisks.
Ex vivo myometrial contraction assays were performed as previously described^24. Briefly, uteri from mice were obtained from animals immediately after delivery.

PGF2α receptor (FP) [3] = molecular target: T1, PGF2α receptor (FP); assay: ERK1/2 MAP kinase activation in HEK293 cells stably transfected with HA-FP (western blot); format: cell-based; design: expressed in transfected cells; host or cells: HEK293; conditions: 1 μM azapeptide 30 min pre-treatment, then PGF2α 0.1 μM or 1 μM for 5 min
Experimental: PGF2αreceptor (FP) expressing cells were serum-starved and pre-treated with 1 μM azapeptides (6-9) for 30 min and then stimulated with 0.1 μM (A) or 1 μM (B) PGF2α for 5 min as described.^24 Blots were quantified by densitometry and plotted compared to the non-stimulated (NS) condition. Results are representative of five independent experiments;
PGF2α was obtained from Cayman. Mouse monoclonal anti-p-ERK and rabbit polyclonal anti-total ERK antibodies were from Cell Signaling. HEK293 cells stably transfected with HA-FP (HA-FP cells)^24 were employed to measure activation of MAP kinase by PGF2α using conventional western blot methods. Briefly, HA-FP cells in 6-well plates were starved for 30 min and pre-treated with 1 μM of an azapeptide (6-9) for 30 min, and then challenged with PGF2α (0.1 μM or 1 μM) for 5 min. Cells were lysed in Laemmli buffer 2× (250 mM Tris-HCl pH 6.8, 2% SDS, 10% Glycerol, 0.01% Bromophenol blue). Lysates were electrophoresed on a 10% SDS-PAGE gels, transferred to nitrocellulose membranes, and probed using mouse anti-p-ERK1/2 and rabbit anti-total-ERK1/2 antibodies. Blots were quantified by densitometry and statistical tests were performed as described.^24

[4] = tested on: SW480, HT29, Caco-2 and HTC116 cells; assay: Effect of PGF2α and PGE2 on colorectal cancer cell migration (collagen-coated Boyden chamber); format: cell-based, human; conditions: for migration of colorectal adenocarcinoma cell lines on stimulation: mediator 1 μM, 16 h, SW480, HT29, Caco-2, HTC116
Experimental: SW480 (p53 mut, K-Ras mut, APC mut), HT29 (p53 mut, K-Ras WT, APC mut), Caco-2 (p53 mut, K-Ras WT, APC mut), and HTC116 ([…], K-Ras mut, APC mut) cells were re-seeded into Boyden chambers coated with collagen, stimulated or not with FBS (10%), PGF2α (1 μM) or PGE2 (1 μM). Migration/invation was assessed after 16 h. Results are presented as mean±SEM of 3 independent experiments. *p<0.05, **p<0.01, ***p<0.001 compared to non-stimulated (ns) conditions;

T1 sequence (P43088 whole entry, species assumed): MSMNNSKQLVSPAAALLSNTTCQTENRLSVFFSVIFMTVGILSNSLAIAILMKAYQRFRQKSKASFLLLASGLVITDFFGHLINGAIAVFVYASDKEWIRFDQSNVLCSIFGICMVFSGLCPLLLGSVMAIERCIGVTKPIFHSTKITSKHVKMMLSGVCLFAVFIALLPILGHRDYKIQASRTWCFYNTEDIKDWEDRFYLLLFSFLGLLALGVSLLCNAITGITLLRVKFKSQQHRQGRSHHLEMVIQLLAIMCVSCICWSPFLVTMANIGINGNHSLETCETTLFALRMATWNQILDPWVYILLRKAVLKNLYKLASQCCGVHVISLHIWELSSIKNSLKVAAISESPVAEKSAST

O=C(O)C[C@H](Cc1ccccc1)NC(=O)[C@H](Cc1cccnc1)NC(=O)[C@@H]1CCCN1C(=O)NNC(=O)Cc1ccccc1 [Compound 5] (PhAc-[azaGly]P[3Pal][β3hF]-OH)
PGF2α-induced migration of SW480 cells (SW480 cells): significantly impaired the ability of SW480 cells to migrate
inhibition of FP-induced (PGF2α-mediated) cell ruffling (PGF2α receptor (FP) [1]): as effective as PDC113.824 in inhibiting FP-induced cell ruffling

O=C(O)C[C@H](Cc1ccccc1)NC(=O)[C@H](Cc1cccnc1)NC(=O)[C@@H]1CCCN1C(=O)N(Cc1ccccc1)NC(=O)Cc1ccccc1 [Compound 7]
reduction of PGF2α-induced myometrial contractions (mean tension) [2]: active
PGF2α-induced migration of SW480 cells (SW480 cells): significantly impaired the ability of SW480 cells to migrate
PGF2α-mediated ERK1/2 signaling relative to cells stimulated with PGF2α alone (PGF2α receptor (FP) [3]): significantly potentiated
inhibition of FP-induced (PGF2α-mediated) cell ruffling (PGF2α receptor (FP) [1]): as effective as PDC113.824 in inhibiting FP-induced cell ruffling

CCCCC[C@H](O)/C=C/[C@@H]1[C@@H](C/C=C\CCCC(=O)O)[C@@H](O)C[C@H]1O [PGF2α]
potency of PGF2α on migration compared with PGE2 ([4]; SW480 and HT29 cells): as potent as PGE2
migration of colorectal adenocarcinoma cell lines on stimulation [4]: enhanced migration of the four (4) cell lines examined
membrane ruffle formation, share of FP cells (PGF2α receptor (FP) [1]; PGF2α 1 μM): 65.7 ± 1.6%

C=CCN(NC(=O)Cc1ccccc1)C(=O)N1CCC[C@H]1C(=O)N[C@@H](Cc1cccnc1)C(=O)N[C@H](CC(=O)O)Cc1ccccc1 [Compound 8]
PGF2α-induced migration of SW480 cells (SW480 cells): significantly impaired the ability of SW480 cells to migrate
PGF2α-mediated ERK1/2 signaling relative to cells stimulated with PGF2α alone (PGF2α receptor (FP) [3]): hindered
inhibition of FP-induced (PGF2α-mediated) cell ruffling (PGF2α receptor (FP) [1]): as effective as PDC113.824 in inhibiting FP-induced cell ruffling

O=C(O)C[C@H](Cc1ccccc1)NC(=O)[C@H](Cc1cccnc1)NC(=O)[C@@H]1CC[C@@H]2CC[C@H](NC(=O)Cc3ccccc3)C(=O)N21 [PDC113.824, Phenylacetyl-(3S,6S,9S)-I^2aa-(2S)-(3-pyridyl)alaninyl-(3S)-β-homophenylalanine, reference compound]
reduction of PGF2α-induced myometrial contractions (mean tension) [2]: active
PGE2-induced migration of SW480 cells (SW480 cells; then 1 μM PGE2): without affecting migration induced by PGE2
PGF2α-induced migration of SW480 cells (SW480 cells): significantly blocked PGF2α-induced migration
migration of SW480 cells in the absence of PGF2α and PGE2 (SW480 cells): did not affect the migration of SW480 cells
inhibition of FP-induced (PGF2α-mediated) cell ruffling (PGF2α receptor (FP) [1]): inhibiting FP-induced cell ruffling

CCCCC[C@H](O)/C=C/[C@H]1[C@H](O)CC(=O)[C@@H]1C/C=C\CCCC(=O)O [PGE2]
migration of colorectal adenocarcinoma cell lines on stimulation [4]: enhanced migration of the four (4) cell lines examined

CN(NC(=O)Cc1ccccc1)C(=O)N1CCC[C@H]1C(=O)N[C@@H](Cc1cccnc1)C(=O)N[C@H](CC(=O)O)Cc1ccccc1 [Compound 9]
PGF2α-induced migration of SW480 cells (SW480 cells): relatively lower effect
PGF2α-mediated ERK1/2 signaling relative to cells stimulated with PGF2α alone (PGF2α receptor (FP) [3]): hindered
inhibition of FP-induced (PGF2α-mediated) cell ruffling (PGF2α receptor (FP) [1]): slightly reduced PGF2α-mediated cell ruffling

C#CCN(NC(=O)Cc1ccccc1)C(=O)N1CCC[C@H]1C(=O)N[C@@H](Cc1cccnc1)C(=O)N[C@H](CC(=O)O)Cc1ccccc1 [Compound 6, Phenylacetyl-aza-propargylglycinyl-(2S)-prolyl-(2S)-3-(pyridyl)-alaninyl-(3S)-β-homophenylalanine]
PGF2α-induced migration of SW480 cells (SW480 cells): had an effect on cell migration but was not as effective as the others
PGF2α-mediated ERK1/2 signaling relative to cells stimulated with PGF2α alone (PGF2α receptor (FP) [3]): significantly potentiated
inhibition of FP-induced (PGF2α-mediated) cell ruffling (PGF2α receptor (FP) [1]): slightly reduced PGF2α-mediated cell ruffling
